Here are results for 82 sequences from the OligoGym collection.

Several values for one entry are separate records, joined by “and”; a condition that tells them apart may be missing. Identical values can stand only once. After the bases stand the sugars from the 5' end (letter, count) and the backbone: PS all phosphorothioate, else s phosphorothioate and o phosphodiester by linkage. Methylation of C is not given here. e = 2'-O-(2-methoxyethyl) (MOE); k = constrained ethyl (cEt); d = 2'-deoxy (DNA)

The target in the data set is IRF4. As to conditions: ASO.

Turning to “AGCTTGATAAAGGCTG (sugars kkkddddddddkekek, PS)”, where the note is “MM.1R, 1 µM”, the target mRNA inhibition is -8%.

For AGGAACTAGTCGACAG (sugars k3 d10 k3, PS), where the note is “SK-MEL-28, 4 µM”, the target mRNA inhibition was found to be 40%. With AGGAAGCACTGGCATT (sugars k3 d10 k3, PS), the target mRNA inhibition (SK-MEL-28, 4 µM) is 59%. AGGAAGCCGTTCCTTT (sugars k3 d10 k3, PS): under “SK-MEL-28, 4 µM”, the target mRNA inhibition was found to be 42%. Turning to AGGAAGTTTACTAACT (sugars k3 d10 k3, PS), the target mRNA inhibition (SK-MEL-28, 4 µM) stood at 58%. For AGGAATGAGCACTCTT (sugars k3 d10 k3, PS), the target mRNA inhibition (MM.1R, 1 µM) amounted to 7%. For AGGAGAGGCTGAGATA (sugars k3 d10 k3, PS), under “SK-MEL-28, 4 µM”, the target mRNA inhibition was 21%. With “AGGCACATCAATGTTT (sugars kkdddddddddkdkdk, PS)”, the target mRNA inhibition (MM.1R, 1 µM) is 4% and 19%. AGGCACCTTCGCGGCC (sugars k3 d10 k3, PS): the target mRNA inhibition (SK-MEL-28, 4 µM) turned out to be 18%. The same measure, in the same setting: next, AGGCTAATCAGAATGG (sugars k3 d10 k3, PS): 42%; AGGGATGGAACAGTAA (sugars k3 d10 k3, PS): 47%.

For AGGTATACTTAAGCAA (sugars k3 d10 k3, PS), the target mRNA inhibition (SK-MEL-28, 4 µM) worked out at 68%. On to AGGTCTGAGTTGTACA (sugars k3 d10 k3, PS), for which the target mRNA inhibition (MM.1R, 1 µM) was 55% and 45%.

For the sequence AGTAACTTGACTTGAG (sugars k3 d10 k3, PS), the target mRNA inhibition (MM.1R, 1 µM) is -3%.

Turning to AGTAATTTTAAGGCCC (sugars k3 d10 k3, PS), where the note is “SK-MEL-28, 4 µM”, the target mRNA inhibition worked out at 60%. AGTACAAACTAAATTC (sugars k3 d10 k3, PS): for the setting “SK-MEL-28, 4 µM”, the target mRNA inhibition amounted to 24%. In the case of “AGTATGAGAAACGGCC (sugars k3 d9 k3 e1, PS)”, the target mRNA inhibition (MM.1R, 1 µM) was 7%. As for “AGTATGAGAAACGGCC (sugars kkddddddddddkeke, PS)”, the target mRNA inhibition (MM.1R, 1 µM) came out at 9%.

As to “AGTATGAGAAACGGCC (sugars kkdddddddddkekek, PS)”, under “MM.1R, 1 µM”, the target mRNA inhibition came to 3%. Same read-out and setting: next, “AGTATGAGAAACGGCC (sugars kkkdddddddddkeke, PS)”: 16%. Regarding AGTCATCACTCTAGTC (sugars k3 d10 k3, PS), the target mRNA inhibition (SK-MEL-28, 4 µM) was found to be 53%. On to AGTCTAGCTGGGTTTT (sugars k3 d10 k3, PS), for which, under “SK-MEL-28, 4 µM”, the target mRNA inhibition turned out to be 63%.

In the case of AGTGACCACGAGGCCC (sugars k3 d10 k3, PS), the target mRNA inhibition (SK-MEL-28, 4 µM) was found to be 15%. Consider AGTGACTTGCATCCAT (sugars k3 d10 k3, PS), for which the target mRNA inhibition was 10% (MM.1R, 0.0625 µM); 28% (MM.1R, 0.25 µM); 67% and 58% (MM.1R, 1 µM); 78% (MM.1R, 4 µM). Consider “AGTGACTTGCATCCAT (sugars kkdddddddddekeke, PS)”, for which the target mRNA inhibition (MM.1R, 1 µM) is 34%.

For “AGTGACTTGCATCCAT (sugars kkdddddddddkekek, PS)”, the target mRNA inhibition (MM.1R, 1 µM) was determined as 27%.

Regarding AGTGAGAAAACCCCCC (sugars k3 d10 k3, PS), the target mRNA inhibition (MM.1R, 1 µM) was determined as 8%. On the same count and under the same terms, under “AGTGATGTCAGGTTTT (sugars e1 k2 d9 k2 e2, PS)” stands 39%. Take “AGTGATGTCAGGTTTT (sugars k3 d9 k3 e1, PS)”: the target mRNA inhibition was determined as 13% (MM.1R, 0.074 µM); 40% (MM.1R, 0.222 µM); 64% (MM.1R, 0.666 µM); 65% (MM.1R, 1 µM); 86% (MM.1R, 2 µM). Regarding “AGTGATGTCAGGTTTT (sugars kddddddddddkekek, PS)”, the target mRNA inhibition (MM.1R, 1 µM) was 25%. With “AGTGATGTCAGGTTTT (sugars kkdddddddddkekek, PS)”, the target mRNA inhibition (MM.1R, 1 µM) turned out to be 39%. “AGTGATGTCAGGTTTT (sugars kkkdddddddddkeke, PS)”: the target mRNA inhibition runs as follows: (MM.1R, 0.074 µM) 15%; (MM.1R, 0.222 µM) 36%; (MM.1R, 0.666 µM) 55%; (MM.1R, 1 µM) 59%; (MM.1R, 2 µM) 79%. Consider AGTGTTCCAGGAGATA (sugars k3 d10 k3, PS), for which the target mRNA inhibition is 43% (MM.1R, 0.0625 µM); 59% (MM.1R, 0.25 µM); 80% and 72% (MM.1R, 1 µM); 84% (MM.1R, 4 µM). In the case of AGTTAAGTACTTGGAC (sugars k3 d10 k3, PS), the target mRNA inhibition (SK-MEL-28, 4 µM) came to 42%. In the case of “AGTTCATGTAAAGTCT (sugars k2 d9 e3 k2, PS)”, the target mRNA inhibition (MM.1R, 1 µM) was 41% and 30%.

Regarding “AGTTCATGTAAAGTCT (sugars kddddddddddkekek, PS)”, where the note is “MM.1R, 1 µM”, the target mRNA inhibition was 25% and 22%. In the case of “AGTTCATGTAAAGTCT (sugars kkdddddddddkdkdk, PS)”, the target mRNA inhibition (MM.1R, 1 µM) was 32% and 47%. For the sequence “AGTTCATGTAAAGTCT (sugars kkdddddddddkekek, PS)”, the target mRNA inhibition (MM.1R, 1 µM) is 42% and 31%. On to AGTTCATTCCCTAGGT (sugars k3 d10 k3, PS), for which, where the note is “SK-MEL-28, 4 µM”, the target mRNA inhibition was found to be 44%. For “AGTTGTAAATGAGTCG (sugars e1 k2 d9 k2 e2, PS)”, the target mRNA inhibition (MM.1R, 1 µM) is 49%. Consider “AGTTGTAAATGAGTCG (sugars k3 d9 k3 e1, PS)”, for which the target mRNA inhibition was determined as 27% (MM.1R, 0.074 µM); 61% (MM.1R, 0.222 µM); 80% (MM.1R, 0.666 µM); 87% (MM.1R, 1 µM); 95% (MM.1R, 2 µM). Consider “AGTTGTAAATGAGTCG (sugars kkddddddddddkeke, PS)”, for which the target mRNA inhibition is 53% and 73% (H929, 0.04 µM); 83% and 91% (KMS11, 0.2 µM); 28% (MM.1R, 0.074 µM); 44% (MM.1R, 0.222 µM); 65% (MM.1R, 0.666 µM); 59% (MM.1R, 1 µM). The target mRNA inhibition (MM.1R, 2 µM) came out at 81%. For “AGTTGTAAATGAGTCG (sugars kkdddddddddkekek, PS)”, the target mRNA inhibition (MM.1R, 0.074 µM) was determined as 10%; the target mRNA inhibition (MM.1R, 0.222 µM) stood at 31%; the target mRNA inhibition (MM.1R, 0.666 µM) is 47%; the target mRNA inhibition (MM.1R, 1 µM) stood at 56%; the target mRNA inhibition (MM.1R, 2 µM) worked out at 66%. For AGTTGTCTGGCTAGCA (sugars k3 d10 k3, PS), for the setting “SK-MEL-28, 4 µM”, the target mRNA inhibition was found to be 80%. Consider AGTTTACACTGGATCT (sugars k3 d10 k3, PS), for which the target mRNA inhibition (SK-MEL-28, 4 µM) is 70% and 74%. Still for that read-out and setting: next, ATAAACACCTCAGCTG (sugars k3 d10 k3, PS): 21%; ATAATGTTTCAGTGCT (sugars k3 d10 k3, PS): 76%; ATACAAAACGGACTGG (sugars k3 d10 k3, PS): 15%.

With ATACATTGAGGCATAC (sugars k3 d10 k3, PS), the target mRNA inhibition (MM.1R, 1 µM) turned out to be 2%. With ATACATTTCTTTTACG (sugars k3 d10 k3, PS), the target mRNA inhibition (SK-MEL-28, 4 µM) was 22%. Same read-out and setting: next, ATACTTAAGCAAGTGG (sugars k3 d10 k3, PS): 76%; ATAGAGCCAGAGCAGT (sugars k3 d10 k3, PS): 66%. For ATAGGAAGCACTGGCA (sugars k3 d10 k3, PS), the target mRNA inhibition (SK-MEL-28, 4 µM) was 42%. As to ATAGTAAGTTCTAGTC (sugars k3 d10 k3, PS), the target mRNA inhibition (MM.1R, 1 µM) was determined as 11%. Turning to ATAGTGCAATGAAATG (sugars k3 d10 k3, PS), the target mRNA inhibition (SK-MEL-28, 4 µM) came to 36%. ATATAACGGTGTTTCA (sugars k3 d10 k3, PS): the target mRNA inhibition (SK-MEL-28, 4 µM) came to 58%. Turning to ATCAAGTAAAGTGATC (sugars k3 d10 k3, PS), the target mRNA inhibition (SK-MEL-28, 4 µM) stood at 29%. The same measure, in the same setting: next, ATCAATGATGGCAGTC (sugars k3 d10 k3, PS): 57%.

Take ATCAGAATGGCGAGTT (sugars k3 d10 k3, PS): under “SK-MEL-28, 4 µM”, the target mRNA inhibition was found to be 47%. In the case of ATCAGATTGAATCCAT (sugars k3 d10 k3, PS), the target mRNA inhibition (MM.1R, 1 µM) worked out at 23%.

Take ATCAGTCTCAAAAACG (sugars k3 d10 k3, PS): for the setting “SK-MEL-28, 4 µM”, the target mRNA inhibition stood at 41%. As for ATCCACACCAATGGCA (sugars k3 d10 k3, PS), where the note is “SK-MEL-28, 4 µM”, the target mRNA inhibition came to 34%.

In the case of ATCCATGTTGCATGGC (sugars k3 d10 k3, PS), the target mRNA inhibition (SK-MEL-28, 4 µM) was 61%. In the case of ATCCGAAAAGACTGGA (sugars k3 d10 k3, PS), under “MM.1R, 1 µM”, the target mRNA inhibition is -20%. As for ATCTAATCCACAATCA (sugars k3 d10 k3, PS), where the note is “SK-MEL-28, 4 µM”, the target mRNA inhibition came out at 30%. In the case of ATCTGATCCGGACTCT (sugars k3 d10 k3, PS), the target mRNA inhibition (SK-MEL-28, 4 µM) was 9%. Consider ATCTGTATAGTTCTCA (sugars k3 d10 k3, PS), for which the target mRNA inhibition (MM.1R, 1 µM) was determined as 55%. With ATCTTAACCTGGAGAA (sugars k3 d10 k3, PS), the target mRNA inhibition (SK-MEL-28, 4 µM) was found to be 28%. Consider ATGAGGAAGCCGTTCC (sugars k3 d10 k3, PS), for which the target mRNA inhibition (SK-MEL-28, 4 µM) was 58%. Take ATGATAAGGCACTACT (sugars k3 d10 k3, PS): the target mRNA inhibition (SK-MEL-28, 4 µM) amounted to 13%. As for ATGCATAACACGGTGT (sugars k3 d10 k3, PS), the target mRNA inhibition (SK-MEL-28, 4 µM) was 45%.

Take ATGCATAGTGATGAGA (sugars k3 d10 k3, PS): the target mRNA inhibition (SK-MEL-28, 4 µM) was determined as 45%. Turning to ATGGACATCTGCGGGT (sugars k3 d10 k3, PS), under “SK-MEL-28, 4 µM”, the target mRNA inhibition turned out to be 50%. Regarding ATGGACCACGCAGCCT (sugars k3 d10 k3, PS), the target mRNA inhibition (SK-MEL-28, 4 µM) came out at 39%. As to ATGGATAGTTTCTCAT (sugars k3 d10 k3, PS), for the setting “SK-MEL-28, 4 µM”, the target mRNA inhibition is 25%. ATGGTATTTTTCCGTT (sugars k3 d10 k3, PS): under “MM.1R, 1 µM”, the target mRNA inhibition is 32% and 43%. In the case of ATGTATACATCACTGC (sugars k3 d10 k3, PS), the target mRNA inhibition (SK-MEL-28, 4 µM) was 67%. As for “ATGTGATAGCTGAGCT (sugars k2 d9 e3 k2, PS)”, under “MM.1R, 1 µM”, the target mRNA inhibition is 0%. The same measure, in the same setting: under “ATGTGTATTACTCTTA (sugars kddddddddddkekek, PS)” stands 17% and 4%. On the same count and under the same terms, next, ATGTGTTCTGGTAAAT (sugars k3 d10 k3, PS): 34%; ATGTTAGCCAATTCCT (sugars k3 d10 k3, PS): 30% and 33%. For ATGTTGCATAGGCATC (sugars k3 d10 k3, PS), the target mRNA inhibition (MM.1R, 1 µM) was 10%.
